Reference: patent publication US20250009852A1, “DEPLETING EGFR AND HER2 OVERCOMES RESISTANCE TO EGFR INHIBITORS IN COLORECTAL CANCER” (Health Research, Inc., priority 2021, published 2025)

What was measured:
HT29 cells = assay: MTT cell proliferation assay; type: cell-based, human; details: 24, 48 or 72 h, PEPD^G278D 5-250 nM, cetuximab 2.75-275 nM, panitumumab 2.77-277 nM
Procedure: (§1) Cells were grown in 96-well plates. […] The cells were then washed with PBS and mixed with dimethyl sulfoxide (150 μl per well), and cell density was determined by measuring the reduction of MTT to formazan spectroscopically at 570 nm using a Synergy 2 Multi-Mode Microplate Reader (BioTek). In experiments involving siRNA transfection, 2×10^3 HCT116 cells or 6×10^3 HT29 cells were seeded to each well of 96-well plates overnight and then transfected 25 nM siRNA (scramble siRNA, EGFR siRNA or HER2 siRNA) as described above, followed by MTT assay.

HCT116 cells = assay: MTT cell proliferation assay; type: cell-based, human; details: 24, 48 or 72 h, PEPD^G278D 5-250 nM, cetuximab 2.75-275 nM, panitumumab 2.77-277 nM
Procedure: as §1

SW48 cells = assay: MTT cell proliferation assay; type: cell-based, human; details: 24, 48 or 72 h, PEPD^G278D 5-250 nM, cetuximab 2.75-275 nM, panitumumab 2.77-277 nM
Procedure: as §1

[1] = test system: HER3, MET, IGF1R, SRC, AKT, ERK, MEK; assay: Western blotting of whole cell lysates: other RTKs and downstream signaling proteins; type: cell-based, human; details: HCT116, HT29 and SW620 cells; 275-277 nM, 48 h
Procedure: (§2) To prepare whole cell lysates, cells were washed with PBS twice, mixed with 1× cell lysis buffer from Cell Signaling Technology supplemented with 2 mM PMSF and a protease inhibitor cocktail from Roche Applied Science, placed on ice for 10 min, sonicated at 0-4° C. to enhance cell lysis using a Branson Model 450 sonifier, and finally centrifuged at 13,000 g for 10 min at 4° C., and the supernatant fraction is collected as whole cell lysate. Tumor and samples were mixed with RIPA buffer (25 mM Tris-HCl, PH7.6, 150 mM NaCl, 1% Nonidet P-40, 1% sodium deoxycholate, and 0.1% SDS), which was supplemented with 2 mM PMSF, the protease inhibitor cocktail mentioned above, phosphatase inhibitor cocktail 2 and phosphatase inhibitor cocktail 3 from Sigma-Aldrich at 14.3 μl buffer per mg tissue, and homogenized in a Dounce homogenizer. The homogenates were cleared by centrifugation at 13,000 g for 15 min at 4° C.
(§3) Protein concentrations in all samples were measured using the BCA Assay Kit. For Western blotting, each sample was mixed with 4× loading dye, heated for 5 min at 95° C., and resolved by SDS-PAGE (8-12.5%). Proteins were transferred to polyvinylidene fluoride membrane, probed with specific antibodies, and detected using either Luminata Classico (Millipore) or Luminata Cresendo (Millipore). For IP, cell lysates (0.5 mg protein/sample) were incubated with a desired antibody overnight at 4° C., followed by incubation of 500 μl sample with 30 μl G-Sepharose beads (2 mg/ml) for 1 h at RT. The beads were washed three times with IP buffer, suspended in 2× SDS loading buffer, boiled for 5 min, and analyzed by Western blotting.

EGFR and HER2 [2] = target: T1, EGFR and HER2 (Homo sapiens, UniProt P00533); assay: Western blotting of whole cell lysates: EGFR and HER2; type: cell-based; details: HB-EGF 20 ng/ml in medium without serum
T1 construct: Both EGFR and HER2 were expressed in HCT116, HT29, and SW48 cells; endogenous in cells; host or cells: HCT116, HT29, SW48 (SW620 lacks both)
Procedure: as §2, §3

EGFR and HER2 [3] = assay: as above; type: cell-based, human; details: HB-EGF 20 ng/ml alone, without PEPD^G278D and FBS
Procedure: as §2, §3

[4] = test system: HER3, IGF1R, MET, SRC, AKT, ERK, MEK, NRAS, HRAS, caspase 3; assay: Western blotting of tumor homogenates: other signaling proteins; type: in vivo, mouse; details: HCT116 and HT29 tumors; single agent
Procedure: as §2
as §3, with “For IP, cell lysates (0.5 mg protein/sample) were incubated with a desired antibody overnight at 4° C., followed by incubation of 500 μl sample with 30 μl G-Sepharose beads (2 mg/ml) for 1 h at RT.” left out
SCID mice (C.B.17 SCID) were bred by the Laboratory Animal Shared Resource at Roswell Park Comprehensive Cancer Center. […] Subcutaneous tumor volume was measured using length ×width^2÷2. Tumor volume was measured three times each week. Orthotopic tumor growth was monitored by bioluminescence weekly. Mice were given D-luciferin (150 mg/kg) by ip and anesthetized with isoflurane, and tumor burden was measured by bioluminescence using the IVIS Spectrum In Vivo Imaging System (PerkinElmer). Drug treatment was started when significant tumor growth was detected. […] The mice were closely monitored for sign of adverse effects and weighed three times each week.

HT29 tumors = assay: Subcutaneous HT29 tumors in SCID mice; type: in vivo, mouse; details: sc HT29 tumors; 5-FU 35 mg/kg ip every 4 days (FIG. 14)
Procedure: SCID mice (C.B.17 SCID) were bred by the Laboratory Animal Shared Resource at Roswell Park Comprehensive Cancer Center. Male mice at 7-8 weeks of age were used. All mouse experiments were approved by the Institutional Animal Care and Use Committee at Roswell Park Comprehensive Cancer Center under protocol 1022M. We established subcutaneous tumors by inoculating 1×10^6 HCT116 cells, 4×10^6 HT29 cells, or 2×10^6 SW48 cells to the flank of each mouse in 100 μl of serum free medium. Colon patient-derived xenograft (PDX) 14650 was established from a liver metastatic lesion in a patient treated at Roswell Park Comprehensive Cancer Center. Tumor fragments (˜20 mm^3) from donor mice were implanted into the flank of each mouse subcutaneously using a trocar. Orthotopic colon tumors in mice were established by inoculating HCT116 cells stably transfected with firefly luciferase (2×10^6 cells in 50 μl of 50% serum-free medium and 50% Matrigel) to the caecum wall of each mouse. Mice in each tumor model were randomized cage-wise into treatment groups using Research Randomizer (www.randomizer.org). Subcutaneous tumor volume was measured using length ×width^2÷2. Tumor volume was measured three times each week. Orthotopic tumor growth was monitored by bioluminescence weekly. Mice were given D-luciferin (150 mg/kg) by ip and anesthetized with isoflurane, and tumor burden was measured by bioluminescence using the IVIS Spectrum In Vivo Imaging System (PerkinElmer). Drug treatment was started when significant tumor growth was detected. EP (0.5 mg/kg) was administered to mice ip once daily. PEPD^G278D (4 mg/kg) was administered to mice ip thrice weekly (Monday, Wednesday, Friday). Aderbasib (60 mg/kg) was administered to mice by gavage once daily. 5-FU (35 mg/kg) was administered to mice ip twice weekly (Monday and Thursday). EP, PEPD^G278D and 5-FU were administered to mice in PBS. Aderbasib was first dissolved in DMSO and then diluted by PBS (final 5% DMSO by volume). […] The mice were closely monitored for sign of adverse effects and weighed three times each week. […]

[5] = Monitoring of mice for signs of adverse effects; type: in vivo; details: mouse, in vivo, ip, 35 mg/kg
Procedure: SCID mice (C.B.17 SCID) were bred by the Laboratory Animal Shared Resource at Roswell Park Comprehensive Cancer Center. Male mice at 7-8 weeks of age were used. All mouse experiments were approved by the Institutional Animal Care and Use Committee at Roswell Park Comprehensive Cancer Center under protocol 1022M. We established subcutaneous tumors by inoculating 1×10^6 HCT116 cells, 4×10^6 HT29 cells, or 2×10^6 SW48 cells to the flank of each mouse in 100 μl of serum free medium. Colon patient-derived xenograft (PDX) 14650 was established from a liver metastatic lesion in a patient treated at Roswell Park Comprehensive Cancer Center. Tumor fragments (˜20 mm^3) from donor mice were implanted into the flank of each mouse subcutaneously using a trocar. […] Subcutaneous tumor volume was measured using length ×width^2÷2. Tumor volume was measured three times each week. Orthotopic tumor growth was monitored by bioluminescence weekly. Mice were given D-luciferin (150 mg/kg) by ip and anesthetized with isoflurane, and tumor burden was measured by bioluminescence using the IVIS Spectrum In Vivo Imaging System (PerkinElmer). Drug treatment was started when significant tumor growth was detected. […] The mice were closely monitored for sign of adverse effects and weighed three times each week. […]

HCT116 tumors = assay: Subcutaneous HCT116 tumors in SCID mice; type: in vivo, mouse; details: sc HCT116 tumors; 5-FU 35 mg/kg ip every 3-4 days, alone or with EP and PEPD^G278D 4 mg/kg, without aderbasib (FIG. 14)
Procedure: SCID mice (C.B.17 SCID) were bred by the Laboratory Animal Shared Resource at Roswell Park Comprehensive Cancer Center. Male mice at 7-8 weeks of age were used. All mouse experiments were approved by the Institutional Animal Care and Use Committee at Roswell Park Comprehensive Cancer Center under protocol 1022M. We established subcutaneous tumors by inoculating 1×10^6 HCT116 cells, 4×10^6 HT29 cells, or 2×10^6 SW48 cells to the flank of each mouse in 100 μl of serum free medium. Colon patient-derived xenograft (PDX) 14650 was established from a liver metastatic lesion in a patient treated at Roswell Park Comprehensive Cancer Center. Tumor fragments (˜20 mm^3) from donor mice were implanted into the flank of each mouse subcutaneously using a trocar. Orthotopic colon tumors in mice were established by inoculating HCT116 cells stably transfected with firefly luciferase (2×10^6 cells in 50 μl of 50% serum-free medium and 50% Matrigel) to the caecum wall of each mouse. Mice in each tumor model were randomized cage-wise into treatment groups using Research Randomizer (www.randomizer.org). Subcutaneous tumor volume was measured using length ×width^2÷2. Tumor volume was measured three times each week. Orthotopic tumor growth was monitored by bioluminescence weekly. Mice were given D-luciferin (150 mg/kg) by ip and anesthetized with isoflurane, and tumor burden was measured by bioluminescence using the IVIS Spectrum In Vivo Imaging System (PerkinElmer). Drug treatment was started when significant tumor growth was detected. EP (0.5 mg/kg) was administered to mice ip once daily. […] Aderbasib (60 mg/kg) was administered to mice by gavage once daily. 5-FU (35 mg/kg) was administered to mice ip twice weekly (Monday and Thursday). EP, PEPD^G278D and 5-FU were administered to mice in PBS. Aderbasib was first dissolved in DMSO and then diluted by PBS (final 5% DMSO by volume). Each agent was administered to mice at 0.1 ml volume per 20 g body weight. When a mouse was given multiple agents on the same day, the agents were dosed at approximately 30 min intervals. The mice were closely monitored for sign of adverse effects and weighed three times each week. Mice were sacrificed 24-48 hours after the last treatment, at which point the tumors were promptly removed, snap frozen and stored at −80° C. for later analysis. Some tumors were fixed in 10% buffered formalin, paraffin embedded, cut at 4 μm, and stained with hematoxylin and eosin (H & E) for histological analysis.

EGFR = assay: Immunofluorescence staining and confocal microscopy of EGFR trafficking in SW48 cells; type: cell-based, human; details: chloroquine 25 μM plus PEPD^G278D 25 nM
Procedure: SW48 cells were grown in chamber slides (4×10^4 cells/well) overnight with or without subsequent treatment with PEPD^G278D (25 nM) and/or chloroquine (25 μM) for up to 6 h. The cells were then washed with ice-cold PBS, fixed with 4% paraformaldehyde for 20 min at room temperature (RT), washed again with ice-cold PBS and blocked with 1% BSA in PBS for 1 h at RT. The cells were then incubated with an EGFR antibody, a His tag antibody for detection of PEPD^G278D, and/or a LAMP1 antibody overnight at 4° C., washed with PBS, incubated with a secondary antibody conjugated to Alexa-Fluor 488 or Alexa-Fluor 647 antibody for 1 h at RT and washed again with PBS. The cells were then examined with a BZ-X700 fluorescence microscope (Keyence) with a S PL FL ELWD ADM 40xC objective. Merged images from Z-stack were organized using the ImageJ software (NIH Image).

With panitumumab [reference compound] the “cell growth measured by MTT assay” value (HT29 cells) was “neither agent is active”, the “cell growth measured by MTT assay” value (HCT116 cells) was “neither agent is active” and the “cell growth measured by MTT assay” value (SW48 cells) was “inhibited the growth of SW48 cells in a time- and concentration-dependent manner”. The “effect on MET and ERK” value [1] was “neither cetuximab nor panitumumab had any effect”.

In the case of “HB-EGF: recombinant human HB-EGF, a high affinity EGFR ligand [reference compound]”, the “effect on EGFR depletion induced by PEPD^G278D” value (EGFR and HER2 [2]) is reported as “mimicked the effect of serum” and the “expression of EGFR or HER2” value (EGFR and HER2 [3]) is reported as “did not modulate the expression”.

For enoxaparin [EP], the “expression or phosphorylation of the proteins analyzed in tumors” value [4] was “neither EP nor aderbasib had any effect”.

With `O=c1[nH]cc(F)c(=O)[nH]1` [5-FU, fluorouracil] the tumor growth (HT29 tumors) was “ineffective”, the “toxicity in a dose-finding experiment” value [5] was “not toxic” and the tumor growth (HCT116 tumors) was “ineffective”.

With `CCN(CC)CCCC(C)Nc1ccnc2cc(Cl)ccc12` (centres unmarked) [chloroquine, reference compound] the “EGFR degradation induced by PEPD^G278D” value (EGFR) was “blocked EGFR degradation”.
